Test results published in patent publication US9101600B2, “Compounds as RORγt modulators and uses thereof” (New York University, priority 2010, dated 2015).

What was measured:
[1] = system: mouse Th17 cell differentiation; experiment: Cytokine induced mouse Th17 cell differentiation (IL17a production, FACS); type: cell-based
Procedure: Cytokine induced mouse Th17 cells differentiation. Effects on mouse endogenous RORγt in a relevant physiological setting were determined by testing compounds in the Th17 cell differentiation assay. […] Th1 or regulatory T cell differentiation was used as a counter-screen method to select specific compounds that only affect Th17 cell differentiation without having pleiotrophic effects on general T cell proliferation or cytokine production.
Naive CD4 T cells were cultured with CD3/CD28 stimulatory antibodies in presence of TGFβ and IL6. Compounds were added on Day 1 and cells were analyzed on Day 4. Numbers shown in Table 3 indicate the percentage of mouse Th17 cells.
CD25^−, CD62L^+, and CD44^int-high cells were sorted from B6 mice.

RORγ/γt = RORγ/γt (Mus musculus, UniProt P51450, T352K); experiment: RORγ/γt-luc reporter S2 cell assay / HTS (firefly luciferase); conditions: for 80% Inhib. @: RORγ/γt reporter, S2 cells, concentration for 80% inhibition; for RORγ/γt reporter activity (in words): S2 cell reporter; for Curve Class: RORγ/γt HTS concentration response curve class
Text: The Drosophila S2 cell line was originally purchased from Invitrogen and was maintained in Schneider's medium supplemented with 10% heat-inactivated bovine fetal calf serum and antibiotics (Invitrogen). Gal4 DNA binding domain (G4 DBD) corresponding to amino acids 1 through 147 of Gal4 protein was PCR amplified to make a fusion construct with mouse RORγt (amino acids 79 to the carboxyl terminal end) lacking its DNA binding domain. The resulting chimeric gene was subcloned into the copper inducible pMT/V5-His A vector (available from Invitrogen). In a similar manner, Gal4 fusion constructs were prepared with mouse RORα (amino acids 142 to end) or Drosophila DHR3 (amino acids 120 to end).
In order to generate stable cell lines, cells were co-transfected with pMT-G4 DBD-RORγt, pMT-G4 DBD-RORα, pMT-G4 DBD-DHR3, or pMT-G4DBDVP16 and pHygro plasmids (Invitrogen) and screened for resistant colonies in the presence of hygromycin (0.3 mg/mL). More than 150 independent RORγ stable clones with luciferase reporters (pMt-RORγ_luc) were tested for their suitability for the high-throughput screening (HTS) based on the following criteria: high signal-to background ratio in 384- and 1,536-well plates, their high induction rate upon the addition of copper, and RORγ/γt specificity probed by the dsRORγ- or RORγ/γt antagonist-mediated suppression. Positive clones were further transfected with pUAST-firefly luciferase, polIII-Renilla luciferase, and pCoPuro (Iwaki, Figuera et al. 2003) (“Rapid selection of Drosophila S2 cells with the puromycin resistance gene.” Biotechniques 35(3): 482-4, 486.) and selected with puromycin (2.5 ug/ml). […] Using similar methods, stable clones with genomic integration of the luciferase reporters and other reporters were generated such as pMT-RORα_luc, pMT-DHR3_luc, or pMT-VP16_luc.
600 G4 DBD-RORγ/γt-luc reporter (#25) or G4 DBD-VP16-luc reporter cells were distributed into each well of 1,536-well white bottom plates in 4 μl S2 cell culture volume containing hygromicin (300 μg/ml) and puromycin (2 μg/ml). Small compounds in seven different concentrations range from 46 μM to 1.7 nM were pin-transferred (23 nl) by a robot (Inglese et al., 2006, Proc. Natl. Acad. Sci. 103:11473-8). […] After 20-hour incubation at ambient temperature, 1.5 μl firefly luciferase detection mix was added and the luciferase activities were measured in 10 min. ViewLux luminometers were used for measuring luciferase signal.
Since their cognate DNA binding sites were not well characterized, the DNA binding domains (DBD) of RORγ/γt, RORα(mouse homolog for PORγ), and DHR3 (Drosophila orthologue for ROR family proteins) were replaced with the heterologous yeast GAL4 DBD. The transcriptionally active domain of general transcriptional activator VP16 was also fused with GAL4 DBD.

[2] = system: VP16-luc, RORα-luc, and DHR3-luc reporter S2 cell lines; experiment: S2 cell reporter specificity test on other closely related reporters; type: cell-based; conditions: S2 cell assay
RORγ = target: T1, RORγ (Homo sapiens, UniProt P51449); experiment: RORγ overexpression dependent IL17a production in human CD4 T cells (RORγt-IRES-GFP transduced); type: cell-based; conditions: human peripheral blood naive CD4+ T cells, transduced day 1, analyzed day 6
T1 construct: expressed in transfected cells; host or cells: human peripheral blood naive CD4+ T cells, virally transduced
T1 sequence (P51449 1-497 isoform P51449-2): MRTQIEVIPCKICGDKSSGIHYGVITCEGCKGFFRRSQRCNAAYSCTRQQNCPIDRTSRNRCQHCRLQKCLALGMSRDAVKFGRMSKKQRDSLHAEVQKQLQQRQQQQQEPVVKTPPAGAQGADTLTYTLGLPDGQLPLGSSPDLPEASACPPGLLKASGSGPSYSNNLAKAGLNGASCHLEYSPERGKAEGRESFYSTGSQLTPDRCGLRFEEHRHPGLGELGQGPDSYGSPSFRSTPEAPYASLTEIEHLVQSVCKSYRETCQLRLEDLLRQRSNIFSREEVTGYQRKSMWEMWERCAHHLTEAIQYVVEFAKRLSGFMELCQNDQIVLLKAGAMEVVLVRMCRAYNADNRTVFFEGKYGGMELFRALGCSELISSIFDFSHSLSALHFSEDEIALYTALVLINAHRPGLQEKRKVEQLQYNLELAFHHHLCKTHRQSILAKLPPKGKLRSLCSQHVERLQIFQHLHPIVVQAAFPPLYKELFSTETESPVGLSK
Procedure: ROR dependent Th17 cell differentiation.
GFP expressing cells were gated for analysis. DMSO or compounds were added 6-8 hours after viral transduction.

[3] = 20 μM, DMSO 17% Th17, compound added Day 1, analyzed Day 4
[4] = 5 μM, DMSO 25% Th17, compound added Day 1, analyzed Day 4
[5] = at 10 uM (Table 4, printed in 20 μM column)

RORγ/γt, sequence (P51450 with tags, fused parts or gaps T352K): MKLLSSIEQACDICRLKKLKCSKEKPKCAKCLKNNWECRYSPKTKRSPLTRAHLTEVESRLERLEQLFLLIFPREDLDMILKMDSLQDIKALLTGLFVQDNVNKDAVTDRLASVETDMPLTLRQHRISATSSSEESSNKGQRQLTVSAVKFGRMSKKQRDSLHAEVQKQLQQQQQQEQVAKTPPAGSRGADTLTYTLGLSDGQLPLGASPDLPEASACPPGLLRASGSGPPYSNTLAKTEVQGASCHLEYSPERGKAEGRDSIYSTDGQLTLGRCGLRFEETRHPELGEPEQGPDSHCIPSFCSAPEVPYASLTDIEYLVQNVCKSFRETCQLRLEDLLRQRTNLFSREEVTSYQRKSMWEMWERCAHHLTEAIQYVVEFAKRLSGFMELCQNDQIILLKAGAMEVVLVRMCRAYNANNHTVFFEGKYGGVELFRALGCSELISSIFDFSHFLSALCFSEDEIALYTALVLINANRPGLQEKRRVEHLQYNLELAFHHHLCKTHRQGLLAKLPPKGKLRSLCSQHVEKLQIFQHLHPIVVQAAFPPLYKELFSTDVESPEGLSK

Row | SMILES | percentage of mouse Th17 cells (IL17a production) [1, 3] | IC50 (RORγ/γt) [µM] | 80% Inhib. @ (RORγ/γt) [µM] | percentage of mouse Th17 cells (IL17a production) [1, 4] [%] | also measured
1 | CCOc1ccc(-c2cc(CCCC(=O)NCc3cccnc3)no2)cc1 [MLS000118457-02] | 10.7% | – | – | – | –
2 | O=C(/C=C/c1ccc(S(=O)(=O)N2CCOCC2)cc1)NC(=S)Nc1ccc(N2CCOCC2)cc1 [MLS000402315-02] | 4.8% | 2.61 | 7.292 | – | –
3 | Cc1nn(-c2cc(C)c3ccccc3n2)c2c1C1C(C2)C1(C)C (stereo not drawn) [MLS000526165-02] | 8.3% | – | – | – | –
4 | CCOC(=O)c1sc(NC(=O)c2cc3c(s2)CCC(C)C3)nc1C (stereo not drawn) [MLS000566729-02] | 12.1% | 0.134 | 0.4389 | 16.3 | –
5 | CCOC(=O)C1CCN(CC(=O)Nc2cc(C)nn2-c2nc3ccccc3s2)CC1 [MLS000569401-02] | – | – | – | 15 | –
6 | O=C(NC(=S)Nc1nc(-c2ccccc2)cs1)c1cccnc1 [MLS000592121-02] | 27.7% | 17.8 | 62.17 | 27.7 | –
7 | COc1ccc(OC)c(NC(=S)N(CCc2c(C)[nH]c3ccccc23)Cc2cccs2)c1 [MLS000696943-02] | 3.1% | 13.4 | 35.57 | 13.9 | –
8 | Cc1cccc(-c2nc3cc(NC(=O)C4CCCO4)ccc3o2)c1 (stereo not drawn) [MLS000700815-02] | 11.9% | – | – | – | –
9 | C[C@H]1[C@H](C)CC[C@]2(C(=O)O)CC[C@]3(C)C(=CC[C@@H]4[C@@]5(C)CC[C@H](O)C(C)(C)[C@@H]5CC[C@]43C)[C@H]12 [MLS000728569-02] | dead | – | – | 3.7 | –
10 | C=C1NN=C(c2ccccc2Br)N1N=Cc1ccc(N(CC)CC)cc1 [MLS000767819-02] | 10.2% | 2.78 | 7.562 | – | activity of other closely related reporters (in words) [2]: without having effects; RORγ/γt reporter activity (in words) (RORγ/γt): suppression of RORγ reporter activity
11 | O=C(CCCOc1ccccc1)Nc1nc2ccccc2[nH]1 [MLS000772650-02] | 9.9% | 8.67 | 12.38 | 16.9 | –
12 | C=C(NC(=O)c1ccccc1)N1CCN(c2ncc3c(=O)c(C(=O)O)cn(CC)c3n2)CC1 [MLS000777984-02] | 8.9% | – | – | – | effect on mouse Th17 cell differentiation / IL-17a in mouse CD4 T cells (in words) ([1]; IL-6 and TGF-β): RORγt specific inhibitory effects
13 | Cc1cc(C)n(-c2nc(SCC(=O)O)c3c4c(sc3n2)CCCC4)n1 [MLS000778763-02] | 10.2% | – | – | – | –
14 | O=C(CCCN1C(=O)/C(=C/c2ccccc2Cl)SC1=S)Nc1cccnc1 [MLS001034558-02] | dead | 1.6 | 8.843 | 14.3 | –
15 | COc1ccc(C(=O)/C=C/c2ccc(OC)cc2OC)c(O)c1 [MLS001048850-02] | 11.9% | 0.543 | 1.646 | – | –
16 | CCOC(=O)[C@@H]1[C@H]2COc3ccc(Br)cc3[C@@H]2N2C(=O)N(c3ccccc3)C(=O)[C@@]12C [MLS001066232-01] | – | – | – | – | activity of other closely related reporters (in words) [2]: without affecting the activity; percentage of mouse Th17 cells (IL17a production) [1, 5]: 10.4 (at 10 uM) %; RORγ overexpression dependent IL17a production (in words) (RORγ): inhibit; AC50 (RORγ/γt): 10 µM; Curve Class (RORγ/γt): −2.1; RORγ/γt reporter activity (in words) (RORγ/γt): inhibition of RORγ reporter

Row | SMILES | percentage of mouse Th17 cells (IL17a production) [1, 3] | IC50 (RORγ/γt) [µM] | 80% Inhib. @ (RORγ/γt) [µM] | percentage of mouse Th17 cells (IL17a production) [1, 4] [%] | also measured
17 | CCOC(=O)[C@@H]1[C@H]2COc3cc(OC)ccc3[C@@H]2N2C(=O)N(c3ccc(C)cc3)C(=O)[C@@]12C [MLS001066267-01] | – | 5 | 10 | – | percentage of mouse Th17 cells (IL17a production) [1, 5]: 13.5 (at 10 uM) %; RORγ overexpression dependent IL17a production (in words) (RORγ): inhibit; AC50 (RORγ/γt): 5.01 µM; Curve Class (RORγ/γt): −2.1
18 | CCOC(=O)[C@@H]1[C@H]2COc3ccccc3[C@@H]2N2C(=O)N(c3ccc(F)cc3)C(=O)[C@@]12C [MLS001066483-01] | – | – | – | – | AC50 (RORγ/γt): 12.6 µM; Curve Class (RORγ/γt): −2.2
19 | CCOC(=O)[C@@H]1[C@H]2COc3ccccc3[C@@H]2N2C(=O)N(c3ccccc3)C(=O)[C@]12C [MLS001066492-01] | – | – | – | – | AC50 (RORγ/γt): 0.141 µM; Curve Class (RORγ/γt): 4
20 | CCOC(=O)[C@@H]1[C@H]2COc3ccccc3[C@H]2N2C(=O)N(c3ccccc3)C(=O)[C@]12C [MLS001066502-01] | – | – | – | – | AC50 (RORγ/γt): 0.794 µM; Curve Class (RORγ/γt): 4
21 | CCOC(=O)[C@@H]1[C@H]2COc3ccccc3[C@H]2N2C(=O)N(c3ccc(F)cc3)C(=O)[C@]12C [MLS001066503-01] | – | – | – | – | AC50 (RORγ/γt): 2.51 µM; Curve Class (RORγ/γt): 4
22 | CCOC(=O)[C@@H]1[C@H]2COc3ccccc3[C@@H]2N2C(=O)N(c3ccc(OC)cc3)C(=O)[C@@]12C [MLS001066514-01] | – | – | – | – | AC50 (RORγ/γt): 14.1 µM; Curve Class (RORγ/γt): 4
23 | CCOC(=O)[C@@H]1[C@H]2COc3ccccc3[C@@H]2N2C(=O)N(c3ccc(Cl)cc3)C(=O)[C@@]12C [MLS001066523-01] | – | – | – | – | AC50 (RORγ/γt): 15.8 µM; Curve Class (RORγ/γt): −3
24 | CC(C)[C@@H](NC(=O)C1CCN(C(=O)[C@@H]2CCCN2C(=O)OC(C)(C)C)CC1)C(=O)NCc1ccc(F)cc1 [MLS001141034-02] | – | 38.7 | 161.2 | – | –
25 | COc1ccccc1CNC(=O)[C@@H](NC(=O)C1CCN(C(=O)[C@@H]2CCCN2C(=O)OC(C)(C)C)CC1)C(C)C [MLS001157801-02] | – | 14.7 | 45.85 | – | –
26 | CN1CCN(C(=O)CCN2C(=O)/C(=C\c3ccccc3F)SC2=S)CC1 [MLS001201644-02] | – | 16.7 | 40.36 | – | –
27 | CC(C)(C)c1ccc(-c2noc(CCC(=O)Nc3cccnc3)n2)cc1 [MLS001217081-02] | 8.3% | – | – | – | –
28 | CCOC(=O)[C@@H]1[C@H]2COc3ccc(Br)cc3[C@@H]2N2C(=O)N(c3ccc(C)cc3)C(=O)[C@]12C [MLS0010660292-01] | – | – | – | – | AC50 (RORγ/γt): 11.2 µM; Curve Class (RORγ/γt): 4
29 | CC(=O)[C@@]1(O)CC[C@H]2[C@H]3C[C@@H](C)C4=CC(=O)C=C[C@]4(C)[C@@]3(F)[C@@H](O)C[C@]21C [NCGC00016442-02] | 2.6% | – | – | 4.8 | –
30 | Cc1ccc(Sc2cncc3sc(C(N)=O)cc23)cc1 [NCGC00167761-02] | 3.6% | 0.281 | 0.7759 | 11.6 | –
31 | CO[C@H]1[C@@H](O)CC(OC2[C@@H](O)CC(OC3[C@@H](O)C[C@H](OC4CC[C@@]5(C)C(CCC6C5CC(O)[C@]5(C)[C@H](C7=CC(=O)OC7)CCC65O)C4)O[C@@H]3C)O[C@@H]2C)O[C@@H]1C (stereo partly drawn) [NCGC00168746-02] | 1.2% | 1.99 | 6.27 | 4.5 | –
32 | CC1OC(OC2C(O)CC(OC3C(O)CC(OC4CCC5(C)C(CCC6C5CC(O)C5(C)C(C7=CC(=O)OC7)CCC65O)C4)OC3C)OC2C)CC(O)C1O (stereo not drawn) [digoxin, reference compound] | – | – | – | – | Th17 (percentage of mouse Th17 cells) ([1]; 10 μM, DMSO 26% (Table 5)): 0.91%
